Values quoted from earlier work as cited in patent US20020102309A1, “CONTROLLED RELEASE FORMULATION FOR ADMINISTRATION OF AN ANTI-INFLAMMATORY NAPHTHALENE DERIVATIVE” (priority 1999, published 2002).

Test system: patients with osteoarthritis or rheumatoid arthritis

## COc1ccc2cc(CCC(C)=O)ccc2c1 [nabumetone, 4-(6′-methoxy-2′-naphthyl)butan-2-20 one]
Literature (Pisko et al. 1987 and others)
  duodenal ulcer, gastric ulcer, and gastrointestinal bleeding, patients taking the drug: less than 1 % of patients
Patients with osteoarthritis or rheumatoid arthritis, Dahl 1993
  ulcers occurred, treated patients: 0.03 % of patients
